Like-named read-outs stand apart in the source and are kept apart here.
Key:
[1] = Pharmacokinetic study in beagles; assay type: in vivo; details: beagle, dog, plasma, male beagles
Method: Experimental Example 4: Pharmacokinetic Study of Compounds in Beagles
Compound 174 was prepared into a solution with a mixed solvent formulated from 5% dimethyl sulfoxide, 20% (30% solutol) and 75% normal saline; the solution of this compound was administered to male beagles by gavage at a dose of 1.0 mg/kg; and the time points for blood collection were: 15 min, 30 min, 1 b, 2 h, 4 h, 6 b, 8 h, 10 h and 24 h. The solution of the compound was administered to male beagles by intravenous bolus at a dose of 1.0 mg/kg, and the time points for blood collection were as follows: 5 min, 15 min, 30 min, 1 h, 2 h, 4 h, 6 h, 8 h, 10 h, and 24 h.
Compound 177 and Compound 195 were prepared into solutions with a mixed solvent formulated from 5% dimethyl sulfoxide, 20% (30% solutol) and 75% normal saline, respectively; the solutions of these compounds were administered to male beagles by gavage at a dose of 1.0 mg/kg; and the time points for blood collection were: 15 min, 30 min, 1 h, 2 h, 4 h, 6 h, 8 h, 10 h and 24 h. The solution of the compound was administered to male beagles by intravenous bolus at a dose of 1.0 mg/kg, and the time points for blood collection were as follows: 5 min, 15 min, 30 min, 1 h, 2 h, 4 h, 6 h, 8 h, 10 h, and 24 h.
Approximately 400 μL of blood was collected through the medial cephalic vein of the forelimb and placed in an anticoagulant tube containing EDTA-K2. Blood samples were centrifuged at 12,000 rpm for 10 min at 4° C. to obtain plasma samples, and plasma was prepared within 30 min after blood collection. The plasma was stored in a −80° C. freezer before testing.

[2] = target: T1, hERG potassium ion channel (Homo sapiens, UniProt Q12809); assay: Inhibition of hERG potassium ion channels, manual patch-clamp in HEK-293 cells; assay type: cell-based; details: HEK-293 cells stably expressing hERG, whole-cell manual patch-clamp, room temperature
T1 construct: expressed in transfected cells
Method: Experimental Example 5: Test for Inhibition of hERG Potassium Ion Channels by Compound
Experimental Objective: To study the inhibitory effect of the compound on hERG potassium ion channels by a manual patch-clamp technique. […]
• 2.1 Blank control: DMSO stock. • 2.2 Positive control: 10 mM stock formulated from a appropriate amount of Cisapride and dimethyl sulfoxide (DMSO). The stock was aliquoted and stored at −20° C. • 2.3 Compound: An appropriate amount of compound was weighed; the volume of DMSO required was calculated according to the formula: DMSO volume=actual amount×purity (content)/(molecular weight×theoretical concentration), and the corresponding volume of DMSO was pipetted; then, the weighed compound was dissolved with the pipetted DMSO, and the mass of DMSO was measured at the same time; and finally, the actual stock concentration was calculated according to the final amount of DMSO used. […]

T1 sequence (Q12809 whole entry): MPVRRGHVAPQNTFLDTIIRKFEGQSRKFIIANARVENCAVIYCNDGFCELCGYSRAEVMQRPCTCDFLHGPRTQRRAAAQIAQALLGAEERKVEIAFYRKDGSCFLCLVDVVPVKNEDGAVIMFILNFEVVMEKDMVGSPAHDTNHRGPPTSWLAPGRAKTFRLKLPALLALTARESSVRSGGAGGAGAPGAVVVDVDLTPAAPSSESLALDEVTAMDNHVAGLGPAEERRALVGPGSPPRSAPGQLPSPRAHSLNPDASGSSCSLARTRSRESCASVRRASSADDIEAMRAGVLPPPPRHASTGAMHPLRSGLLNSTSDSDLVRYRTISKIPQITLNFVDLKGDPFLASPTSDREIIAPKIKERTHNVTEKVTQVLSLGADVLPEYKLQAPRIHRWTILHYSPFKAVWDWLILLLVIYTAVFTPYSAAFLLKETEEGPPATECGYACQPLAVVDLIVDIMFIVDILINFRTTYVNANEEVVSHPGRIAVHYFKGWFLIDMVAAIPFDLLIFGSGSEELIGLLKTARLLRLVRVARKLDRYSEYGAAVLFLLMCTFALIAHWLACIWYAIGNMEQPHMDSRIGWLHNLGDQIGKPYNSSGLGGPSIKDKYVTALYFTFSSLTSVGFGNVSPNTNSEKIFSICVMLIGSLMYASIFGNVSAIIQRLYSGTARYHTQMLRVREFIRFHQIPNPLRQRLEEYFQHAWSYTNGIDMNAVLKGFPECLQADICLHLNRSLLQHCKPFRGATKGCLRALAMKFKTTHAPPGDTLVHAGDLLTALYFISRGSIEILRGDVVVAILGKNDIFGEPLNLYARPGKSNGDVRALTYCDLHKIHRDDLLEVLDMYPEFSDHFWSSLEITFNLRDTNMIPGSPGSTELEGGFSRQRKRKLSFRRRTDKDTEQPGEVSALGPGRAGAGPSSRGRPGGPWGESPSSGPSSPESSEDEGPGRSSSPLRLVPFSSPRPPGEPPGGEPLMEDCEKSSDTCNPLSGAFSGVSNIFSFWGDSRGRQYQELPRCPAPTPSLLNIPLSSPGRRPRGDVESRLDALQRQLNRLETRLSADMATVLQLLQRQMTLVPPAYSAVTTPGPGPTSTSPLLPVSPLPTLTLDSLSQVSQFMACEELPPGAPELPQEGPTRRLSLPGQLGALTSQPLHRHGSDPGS

## CC#Cc1ccc(-c2nnc(N[C@@H]3CCCN(C)C3)cc2C)c(O)c1 [Compound 174, (R)-2-(4-methyl-6-((1-methylpiperidin-3-yl)amino)pyridazin-3-yl)-5-(prop-1-yn-1-yl)phenol]
[1]; po, gavage 1.0 mg/kg, read-out: AUClast po (area under the drug-time curve for 0-24 h)
  AUC(0-t): 1660 ng·h/mL
[1]; po, gavage 1.0 mg/kg, read-out: Cmax po (peak concentration)
  Cmax: 105 ng/mL
[1]; po, gavage 1.0 mg/kg, read-out: Tmax po (peak time of plasma concentration)
  Tmax: 4 h
[1]; po, gavage 1.0 mg/kg, read-out: tz1/2 po (terminal elimination half-life) (converted)
  half-life: 14.7 h
[1]; intravenous bolus 1.0 mg/kg, read-out: AUClast iv (area under the drug-time curve for 0-24 h)
  AUC(0-t): 1980 ng·h/mL
[1]; intravenous bolus 1.0 mg/kg, read-out: Cl—obs iv (clearance rate) (converted)
  clearance: 5.53 mL/min/kg
[1]; intravenous bolus 1.0 mg/kg, read-out: Vss iv (volume of distribution)
  Vd: 7.39 L/kg
[1]; intravenous bolus 1.0 mg/kg, read-out: tz1/2 iv (terminal elimination half-life) (converted)
  half-life: 15.8 h
[1]; iv 1.0 mg/kg / po 1.0 mg/kg, read-out: F % (absolute bioavailability)
  bioavailability: 83.8%

## C#Cc1ccc(-c2nnc(N[C@@H]3CCCN(C)C3)cc2C)c(O)c1 [Compound 54, (R)-5-ethynyl-2-(4-methyl-6-((1-methylpiperidin-3-yl)amino)pyridazin-3-yl)phenol]
[2]
  IC50: > 10 µM
